Measurements from patent publication US6703502B2 (priority 1997, dated 2004).

Target: α7 nAChR subtype (Rattus norvegicus, UniProt Q05941)
Assay type: binding
Conditions: read-out: KD of radioligand

Sequence of α7 nAChR subtype (Q05941 23-502 limits assumed): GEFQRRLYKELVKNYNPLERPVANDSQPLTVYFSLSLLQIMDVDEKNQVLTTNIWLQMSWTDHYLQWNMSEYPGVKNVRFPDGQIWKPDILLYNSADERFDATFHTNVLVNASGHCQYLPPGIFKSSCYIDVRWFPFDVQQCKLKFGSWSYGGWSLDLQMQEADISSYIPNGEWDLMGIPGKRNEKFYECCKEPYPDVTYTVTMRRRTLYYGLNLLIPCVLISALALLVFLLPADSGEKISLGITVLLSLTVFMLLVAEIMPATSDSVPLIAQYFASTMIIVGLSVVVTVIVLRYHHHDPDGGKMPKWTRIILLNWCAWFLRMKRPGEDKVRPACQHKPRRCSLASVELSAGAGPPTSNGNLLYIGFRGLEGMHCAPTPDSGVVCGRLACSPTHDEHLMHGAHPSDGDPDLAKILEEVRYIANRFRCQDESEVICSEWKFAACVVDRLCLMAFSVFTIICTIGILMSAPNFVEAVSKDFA

Q: [^125I]-α-Bungarotoxin [^125I-α-BTX] was tested. Which Kd did it give?
A: 1.67 nM
